The text below walks through data of patent publication US7629341B2, “Human ADAM-10 inhibitors” (Symphony Evolution, Inc., priority 2003, dated 2009).

The target of one assay is MMP-3 (Stromelysin-1) (Homo sapiens, UniProt P08254). Put plainly: In vitro metalloprotease inhibition, MMP-3. It is filed as biochemical. An excerpt:
(§1) Blank cells indicate lack of data only.

Assay [1] addresses TACE (TNF-alpha converting enzyme, ADAM-17) (Homo sapiens, UniProt P78536). Kind of assay: In vitro metalloprotease inhibition, TACE. It is filed as biochemical.
Text: as §1

In assay [2] the target is T1, MMP-1 (Fibroblast collagenase) (Homo sapiens, UniProt P03956).
T1 sequence (P03956 100-469): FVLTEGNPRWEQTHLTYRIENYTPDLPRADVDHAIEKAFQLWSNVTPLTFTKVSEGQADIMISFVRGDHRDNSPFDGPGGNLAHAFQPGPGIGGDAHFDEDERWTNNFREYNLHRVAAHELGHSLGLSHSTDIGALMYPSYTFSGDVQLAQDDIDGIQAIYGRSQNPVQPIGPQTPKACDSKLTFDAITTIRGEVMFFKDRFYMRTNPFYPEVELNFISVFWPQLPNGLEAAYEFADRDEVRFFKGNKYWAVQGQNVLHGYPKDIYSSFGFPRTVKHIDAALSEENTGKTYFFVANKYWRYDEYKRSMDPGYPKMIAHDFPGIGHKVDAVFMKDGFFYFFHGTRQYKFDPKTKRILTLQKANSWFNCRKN
Kind of assay: In vitro metalloprotease inhibition, MMP-1. In kind it is biochemical.
Text: as §1

A further assay concerns the target T2, ADAM-10 (UniProt O14672).
T2 sequence (O14672 1-748): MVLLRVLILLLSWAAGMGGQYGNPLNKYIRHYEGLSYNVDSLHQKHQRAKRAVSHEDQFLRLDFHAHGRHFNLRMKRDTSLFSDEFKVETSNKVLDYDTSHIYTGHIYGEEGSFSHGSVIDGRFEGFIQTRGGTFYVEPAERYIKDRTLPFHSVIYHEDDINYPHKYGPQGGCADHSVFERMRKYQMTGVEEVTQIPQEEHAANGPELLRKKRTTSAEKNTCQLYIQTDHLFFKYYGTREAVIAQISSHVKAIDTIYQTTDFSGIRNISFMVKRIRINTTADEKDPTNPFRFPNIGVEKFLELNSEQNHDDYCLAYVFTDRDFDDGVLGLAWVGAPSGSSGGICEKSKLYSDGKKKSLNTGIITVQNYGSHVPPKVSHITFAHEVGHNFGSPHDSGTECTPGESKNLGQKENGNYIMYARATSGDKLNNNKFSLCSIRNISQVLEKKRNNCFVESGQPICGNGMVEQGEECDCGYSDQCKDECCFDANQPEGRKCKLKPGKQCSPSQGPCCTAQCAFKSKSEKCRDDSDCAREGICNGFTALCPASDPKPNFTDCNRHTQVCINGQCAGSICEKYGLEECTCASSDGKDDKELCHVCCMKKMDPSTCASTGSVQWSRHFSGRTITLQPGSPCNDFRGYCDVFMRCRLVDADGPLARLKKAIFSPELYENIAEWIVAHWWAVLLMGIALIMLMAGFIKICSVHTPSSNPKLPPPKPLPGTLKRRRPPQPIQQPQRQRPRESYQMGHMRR
Kind of assay: ADAM-10 enzyme assay, cleavage of a fluorogenic 10-residue peptide.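 Also: mouse or human ADAM-10 at 5 nM active enzyme, pH 8.0 HEPES buffer with CaCl2 and NP-40, compounds titrated 100 µM down to 0.5 nM, fluorescence read after 16 h at room temperature.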 In kind it is biochemical, mouse or human (mADAM-10 or hADAM-10). The following applies: in vitro.

Assay [3] has as its target T3, MMP-2 (72 kDa gelatinase, gelatinase A) (Homo sapiens, UniProt P08253).
T3 sequence (P08253 110-660): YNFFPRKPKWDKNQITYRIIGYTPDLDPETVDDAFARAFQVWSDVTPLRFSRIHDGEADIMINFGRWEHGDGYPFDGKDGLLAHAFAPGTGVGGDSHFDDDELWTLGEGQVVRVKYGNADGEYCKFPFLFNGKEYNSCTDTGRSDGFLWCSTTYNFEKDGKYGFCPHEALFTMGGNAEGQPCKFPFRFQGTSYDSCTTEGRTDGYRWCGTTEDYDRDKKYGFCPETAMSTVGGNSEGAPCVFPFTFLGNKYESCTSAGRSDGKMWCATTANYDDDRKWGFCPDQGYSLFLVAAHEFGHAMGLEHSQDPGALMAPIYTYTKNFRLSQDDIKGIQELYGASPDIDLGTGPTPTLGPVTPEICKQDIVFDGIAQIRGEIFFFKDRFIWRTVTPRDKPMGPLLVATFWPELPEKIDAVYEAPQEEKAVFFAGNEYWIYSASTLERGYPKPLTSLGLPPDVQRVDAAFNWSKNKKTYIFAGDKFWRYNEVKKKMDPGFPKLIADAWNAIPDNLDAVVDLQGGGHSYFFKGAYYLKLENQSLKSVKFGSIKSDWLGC
Put plainly: In vitro metalloprotease inhibition, MMP-2. In kind it is biochemical.

In another assay the target is MMP-13 (collagenase-3) (Homo sapiens, UniProt P45452). Put plainly: In vitro metalloprotease inhibition, MMP-13. In kind it is biochemical.

Chain of TACE (TNF-alpha converting enzyme, ADAM-17) (P78536 215-824): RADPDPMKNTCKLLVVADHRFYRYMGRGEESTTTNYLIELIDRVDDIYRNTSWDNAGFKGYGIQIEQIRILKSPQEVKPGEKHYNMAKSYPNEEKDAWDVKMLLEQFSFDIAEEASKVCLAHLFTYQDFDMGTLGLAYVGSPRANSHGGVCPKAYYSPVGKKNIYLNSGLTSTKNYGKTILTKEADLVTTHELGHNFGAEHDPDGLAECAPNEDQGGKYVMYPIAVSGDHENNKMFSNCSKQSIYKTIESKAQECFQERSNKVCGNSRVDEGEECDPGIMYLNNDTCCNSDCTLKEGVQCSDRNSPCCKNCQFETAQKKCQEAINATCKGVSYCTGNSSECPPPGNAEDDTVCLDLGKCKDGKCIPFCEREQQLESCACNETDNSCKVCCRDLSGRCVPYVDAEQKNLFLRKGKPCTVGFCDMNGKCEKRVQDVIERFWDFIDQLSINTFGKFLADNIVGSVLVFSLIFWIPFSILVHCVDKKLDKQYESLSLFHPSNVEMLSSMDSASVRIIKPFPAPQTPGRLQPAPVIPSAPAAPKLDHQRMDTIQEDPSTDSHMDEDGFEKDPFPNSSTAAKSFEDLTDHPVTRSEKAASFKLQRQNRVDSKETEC
Chain of MMP-3 (Stromelysin-1) (P08254 100-477, species assumed): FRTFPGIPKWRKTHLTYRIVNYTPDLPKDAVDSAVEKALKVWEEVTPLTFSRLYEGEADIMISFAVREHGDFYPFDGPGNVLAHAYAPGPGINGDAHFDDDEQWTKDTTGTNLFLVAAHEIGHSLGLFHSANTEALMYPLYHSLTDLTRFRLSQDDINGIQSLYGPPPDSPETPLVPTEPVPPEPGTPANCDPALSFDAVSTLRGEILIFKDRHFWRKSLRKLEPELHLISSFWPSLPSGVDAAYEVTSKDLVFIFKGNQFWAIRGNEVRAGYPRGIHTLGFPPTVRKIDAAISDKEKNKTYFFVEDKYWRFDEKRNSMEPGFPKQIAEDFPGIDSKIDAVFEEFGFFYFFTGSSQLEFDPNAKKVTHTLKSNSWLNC
Protocol for ADAM-10: mADAM-10 or hADAM-10 activity was measured as the ability to cleave a 10-residue peptide (DABCYL-Leu-Leu-Ala-Gln-Lys-*-LeuArg-Ser-Ser-Arg-EDANS). […] Enzyme was diluted to a final active concentration of 5 nM in Buffer A (50 mM HEPES 8.0, 100 mM NaCl, 1 mM CaCl2 and 0.01% NP-40). Serial dilutions for compounds were performed ranging from 100 μM to 0.5 nM using a Beckman Biomek 2000 in polypropylene plates (Greiner). […] This reaction was incubated for 16 hr at RT and fluorescence was read using identical conditions.

As a reminder, the IC50 is the concentration at which inhibition is half-maximal. Read a high IC50 as weaker potency in that assay. Turning to `COCCOC(=O)N1CCN(S(=O)(=O)c2cc(F)c(Oc3ccc(Cl)cc3)c(F)c2)[C@@H](C(=O)NO)C1` [Entry 15], the IC50 was 50 to 1000 nM against MMP-3 (Stromelysin-1), 50 to 1000 nM in assay [1] and 1000 to 20000 nM in assay [2].
`O=C(NO)[C@H]1CN(C(=O)C(=O)N2CCOCC2)CCN1S(=O)(=O)c1cc(F)c(Oc2ccc(Cl)cc2)c(F)c1` [Entry 31]: the IC50 against ADAM-10 was below 50 nM; on MMP-3 (Stromelysin-1) it was 50 to 1000 nM; in assay [3], below 50 nM; against MMP-13 (collagenase-3), below 50 nM; in assay [1], 50 to 1000 nM; in assay [2] it was 1000 to 20000 nM.
Regarding `O=C(NO)[C@H]1CN(S(=O)(=O)Cc2ccncc2)CCN1S(=O)(=O)c1cc(F)c(Oc2ccc(Cl)cc2)c(F)c1` [Entry 34], the IC50 against ADAM-10 was below 50 nM; against MMP-3 (Stromelysin-1) it was 50 to 1000 nM; in assay [3], below 50 nM; on MMP-13 (collagenase-3), below 50 nM; in assay [1] it was below 50 nM; in assay [2] it was 1000 to 20000 nM.
For `O=C(NO)[C@H]1CN(S(=O)(=O)NC(=O)N2CCCCC2)CCN1S(=O)(=O)c1cc(F)c(Oc2ccc(Cl)cc2)c(F)c1` [Entry 37], the 50% inhibitory concentration (IC50) against ADAM-10 is below 50 nM; at MMP-3 (Stromelysin-1), below 50 nM; in assay [3], below 50 nM; on MMP-13 (collagenase-3), below 50 nM; in assay [1], 50 to 1000 nM; in assay [2], 1000 to 20000 nM.
`O=C(NO)[C@H]1CN(S(=O)(=O)NC(=O)N2CCOCC2)CCN1S(=O)(=O)c1cc(F)c(Oc2ccc(Cl)cc2)c(F)c1` [Entry 38]: the IC50 is below 50 nM against ADAM-10; below 50 nM at MMP-3 (Stromelysin-1); below 50 nM in assay [3]; below 50 nM on MMP-13 (collagenase-3); 50 to 1000 nM in assay [1]; 1000 to 20000 nM in assay [2].
Consider `O=C(NO)[C@H]1CN(S(=O)(=O)c2cccnc2O)CCN1S(=O)(=O)c1cc(F)c(Oc2ccc(Cl)cc2)c(F)c1` [Entry 45], for which the IC50 was below 50 nM at ADAM-10; 50 to 1000 nM on MMP-3 (Stromelysin-1); below 50 nM in assay [3]; below 50 nM against MMP-13 (collagenase-3); 50 to 1000 nM in assay [1]; 1000 to 20000 nM in assay [2].
As for `O=C(NO)[C@H]1CN(S(=O)(=O)CCN2CCCCC2)CCN1S(=O)(=O)c1cc(F)c(Oc2ccc(Cl)cc2)c(F)c1` [Entry 53], the half-inhibitory concentration (IC50) against ADAM-10 was below 50 nM; at MMP-3 (Stromelysin-1), 50 to 1000 nM; in assay [3], below 50 nM; against MMP-13 (collagenase-3) it was below 50 nM; in assay [2], 50 to 1000 nM.
Take `CN(C)CCS(=O)(=O)N1CCN(S(=O)(=O)c2cc(F)c(Oc3ccc(Cl)cc3)c(F)c2)[C@@H](C(=O)NO)C1` [Entry 54]: the IC50 against ADAM-10 is below 50 nM; on MMP-3 (Stromelysin-1) it was below 50 nM; in assay [3] it was below 50 nM; against MMP-13 (collagenase-3), below 50 nM; in assay [1], below 50 nM; in assay [2] it was 50 to 1000 nM.
Turning to `CN1CCN(CCS(=O)(=O)N2CCN(S(=O)(=O)c3cc(F)c(Oc4ccc(Cl)cc4)c(F)c3)[C@@H](C(=O)NO)C2)CC1` [Entry 55], the half-inhibitory concentration (IC50) is below 50 nM against ADAM-10; 50 to 1000 nM against MMP-3 (Stromelysin-1); below 50 nM in assay [3]; below 50 nM at MMP-13 (collagenase-3); 1000 to 20000 nM in assay [2].
Turning to `CCOC(=O)N1CCN(CCS(=O)(=O)N2CCN(S(=O)(=O)c3cc(F)c(Oc4ccc(Cl)cc4)c(F)c3)[C@@H](C(=O)NO)C2)CC1` [Entry 56], the 50% inhibitory concentration (IC50) at ADAM-10 was below 50 nM; against MMP-3 (Stromelysin-1) it was 50 to 1000 nM; in assay [3] it was below 50 nM; against MMP-13 (collagenase-3), below 50 nM; in assay [2], 1000 to 20000 nM.
Regarding `O=C(NO)[C@H]1CN(S(=O)(=O)CCN2CCOCC2)CCN1S(=O)(=O)c1cc(F)c(Oc2ccc(Cl)cc2)c(F)c1` [Entry 57], the IC50 against ADAM-10 was 50 to 1000 nM; against MMP-3 (Stromelysin-1), 1000 to 20000 nM; in assay [3] it was 50 to 1000 nM; at MMP-13 (collagenase-3) it was 50 to 1000 nM; in assay [2] it was above 20000 nM.
In the case of `O=C(NO)[C@H]1CN(C(=O)N2CCOCC2)CCN1S(=O)(=O)c1ccc(-c2cccc(F)c2)nc1` [Entry 58], the 50% inhibitory concentration (IC50) on ADAM-10 is below 50 nM; at MMP-3 (Stromelysin-1) it was 50 to 1000 nM; in assay [3], below 50 nM; against MMP-13 (collagenase-3) it was below 50 nM; in assay [2] it was 50 to 1000 nM.
For `O=C(NO)[C@H]1CN(C(=O)c2cccnc2)CCN1S(=O)(=O)c1cc(F)c(Oc2ccc(Cl)cc2)c(F)c1` [Entry 59], the IC50 is below 50 nM at ADAM-10; 50 to 1000 nM on MMP-3 (Stromelysin-1); below 50 nM in assay [3]; below 50 nM against MMP-13 (collagenase-3); 50 to 1000 nM in assay [1]; 1000 to 20000 nM in assay [2].
In the case of `CN(C)c1cccc2c(S(=O)(=O)N3CCN(S(=O)(=O)c4cc(F)c(Oc5ccc(Cl)cc5)c(F)c4)[C@@H](C(=O)NO)C3)cccc12` [Entry 60], the IC50 is 50 to 1000 nM against ADAM-10; 1000 to 20000 nM at MMP-3 (Stromelysin-1); below 50 nM in assay [3]; below 50 nM against MMP-13 (collagenase-3); above 20000 nM in assay [2].
As to `O=C(NO)[C@H]1CN(S(=O)(=O)Cc2cc(Cl)cc(Cl)c2)CCN1S(=O)(=O)c1cc(F)c(Oc2ccc(Cl)cc2)c(F)c1` [Entry 61], the IC50 is 50 to 1000 nM on ADAM-10; above 20000 nM against MMP-3 (Stromelysin-1); 1000 to 20000 nM in assay [3]; 1000 to 20000 nM at MMP-13 (collagenase-3); above 20000 nM in assay [2].
As to `C=CCN1CCN(S(=O)(=O)c2cc(F)c(Oc3ccc(Cl)cc3)c(F)c2)[C@@H](C(=O)NO)C1` [Entry 62], the IC50 is 50 to 1000 nM against ADAM-10; 1000 to 20000 nM on MMP-3 (Stromelysin-1); below 50 nM in assay [3]; below 50 nM against MMP-13 (collagenase-3); above 20000 nM in assay [2].
`O=C(O)CN1CCN(S(=O)(=O)c2cc(F)c(Oc3ccc(Cl)cc3)c(F)c2)[C@@H](C(=O)NO)C1` [Entry 63]: the half-maximal inhibitory concentration (IC50) at ADAM-10 is 50 to 1000 nM; at MMP-3 (Stromelysin-1) it was 1000 to 20000 nM; in assay [3] it was 50 to 1000 nM; on MMP-13 (collagenase-3), 50 to 1000 nM; in assay [2], above 20000 nM.
Regarding `COCCOC(=O)N1CCN(S(=O)(=O)c2ccc(Oc3ccc4c(c3)CCCC4)nc2)[C@@H](C(=O)NO)C1` [Entry 64], the IC50 on ADAM-10 is below 50 nM; against MMP-3 (Stromelysin-1), below 50 nM; in assay [3] it was below 50 nM; at MMP-13 (collagenase-3), below 50 nM; in assay [2], 50 to 1000 nM.
Regarding `COCCOC(=O)N1CCN(S(=O)(=O)c2ccc(Oc3ccc(F)cc3)nc2)[C@@H](C(=O)NO)C1` [Entry 65], the IC50 against ADAM-10 is 50 to 1000 nM; at MMP-3 (Stromelysin-1), below 50 nM; in assay [3], below 50 nM; at MMP-13 (collagenase-3) it was below 50 nM; in assay [2], below 50 nM.
Turning to `COCCOC(=O)N1CCN(S(=O)(=O)c2ccc(-c3cccc(F)c3)nc2)[C@@H](C(=O)NO)C1` [Entry 66], the half-maximal inhibitory concentration (IC50) is below 50 nM on ADAM-10; below 50 nM at MMP-3 (Stromelysin-1); below 50 nM in assay [3]; below 50 nM against MMP-13 (collagenase-3); 50 to 1000 nM in assay [2].
